From US20050220912A1, “Anti-inflammatory composition for treating pelvic endometriosis” (priority 2004, published 2005)

Assays:
[1] = Effect of olive kernel extract on absorption of tritiated chondroitin sulfate in vivo (serum radioactivity after oral capsule); design: species or system male Sprague-Dawley rats; details: serum radioactivity at 8 hours
Procedure: Chondroitin sulfate was tritiated by New England Nuclear Corp. to a specific activity of 4.3 mCi/ml.
Unlabeled chondroitin sulfate was dissolved in olive kernel extract at a ratio of about 55 w/v chondroitin sulfate powder to about 450 w/v of olive kernel extract (2.9% acidity as oleic acid, 1.03% water, 0.08% hexane). To this solution was added 20.2 microcuries of the labeled chondroitin sulfate. AAA gelatin capsules were filled with the resulting solution using an aluminum template molding device.
The laboratory animals (250 g male Sprague-Dawley rats) were kept overnight without food but with free access to water. One capsule containg the above-described chondroitin sulfate-olive kernel extract solution was given to each rat per os. Control animals were given the equivalent amount of chondroitin, but without olive kernel extract. The animals were then given free access to food. Serum radioactivity was measured 8 hours thereafter in a beta scintillation counter.

[2] = Chondroitin sulfate solubility in oils; type: physicochemical; details: in codfish oil, corn oil and olive oil (from the flesh of the olive)
Excerpt: Parallel experiments with codfish oil, corn oil and olive oil (from the flesh of the olive) were comtemplated, but chondroitin sulfate solubility in these oils was insufficient to meet the requirements of the experiment.

[3] = commercially available chondroitin sulfate preparations (cow trachea); cited from earlier work

dose of labeled chondroitin sulfate that reached the circulation ([1]; control animals, per os capsule without olive kernel extract, n=3): about 3.9%+/−0.4%
dose of labeled chondroitin sulfate absorbed into the general circulation ([1]; per os capsule, chondroitin sulfate dissolved in olive kernel extract, n=4): about 14.3%+/−0.7%
chondroitin sulfate solubility [2]: insufficient
Substance: chondroitin sulfate
Absorption from g.i. tract / absorbed orally [3]: less than 5%
